Assay results published in US20180362485A1, “N-HYDROXYFORMAMIDE COMPOUNDS AND COMPOSITIONS COMPRISING THEM FOR USE AS BMP l, TLL1 AND/OR TLL2 INHIBITORS” (GlaxoSmithKline Intellectual Property (No. 2) Limited, priority 2015, published 2018).
Counter-ions that a name gives are not always drawn.

Experiments:
[1] = tested on: Generation of Procollagen I C-Terminal Propeptide (PICP); experiment: Cell-based inhibition assay of generation of procollagen I C-terminal propeptide (PICP), PICP ELISA; details: Cardiac fibroblast, human cardiac fibroblasts, 24 to 48 hr, read-out: pIC50, PICP cellular inhibition assay (converted)
Method: (§1) An adaptation of the collagen deposition assay described by Chen, C. Z. C., et al., British Journal of Pharmacology, 2009, 158, 1196-1209 is used to examine effect of compounds on procollagen I processing and collagen deposition. In the adapted assay, human cardiac fibroblasts are utilized. Processing of procollagen I is determined by a PICP ELISA assay and deposition of mature collagen is determined by immunostaining.
(§2) Human cardiac fibroblasts are cultured and maintained until passage 6 in FGM-3 media (Lonza, #CC-3132) in a 37° C. humidified incubator with 5% CO2. They are then seeded in 96-well black wall, clear bottom plates at 10,000 to 15,000 cells per well in eagle's minimum essential media (EMEM, ATCC #30-2003) containing 10% fetal bovine serum (FBS, Life Technologies #10082147), 1% Glutamax (Life Technologies #35050061) and 1% Penicillin and Streptomycin (Life Technologies #15070063). These cultures are placed in 37° C. incubator. The next day, media is removed by aspiration and cells are rinsed with phosphate buffered saline. Crowding media (also called ficoll media) is prepared by adding 112.5 mg/ml of ficoll70 and 75 mg/ml ficoll400 (GE healthcare #17-0310-10 and 17-0300-10, respectively), 100 μM ascorbic acid, 1% Glutamax and 1% Penicillin and Streptomycin to EMEM media. Test compounds (dissolved in DMSO) are diluted into crowding media and then added to the cells. Final concentration of DMSO in crowding media is less than 0.3%. Cells are treated for 24 to 48 hr in a 37° C. incubator. At the end of the treatment period, cell media are collected. The level of PICP in the media is determined by a PICP ELISA assay (Quidel #8003) following the manufacturer's protocol. Potencies of test compounds are calculated by fitting PICP levels, relative to untreated controls, to log (inhibitor) vs. response equation using Graphpad Prism software 5.0 and expressed as pIC50.

[2] = tested on: deposition of mature collagen; experiment: Cell-based inhibition assay of mature collagen deposition (immunostaining); details: Cardiac fibroblast; human cardiac fibroblasts, immunostaining of mature collagen I; read-out: pIC50, mature collagen cellular inhibition assay (converted)
Method: as §1, §2
For some compounds, deposition of mature collagen is measured by immunostaining in addition to PICP levels. At the end of the treatment period, cells on culture plate are fixed with 100% methanol (prechilled to −20° C.) for 10 min. Then the cells are immunostained with mouse anti-mature collagen I antibody (1:500 dilution, Sigma#C2456), anti-mouse secondary antibody Alexa647 (1:500 dilution, Invitrogen#A21236) and Hoechst (for nuclei, 2 μg/ml, Invitrogen#H3596). Fluorescent image acquisition is done using the Operetta High Content Imaging system (Perkin Elmer). For each image field, the intensity of mature collagen staining is normalized with the number of nuclei. Normalized collagen levels are used to calculate the potency of test compounds with Graphpad Prism software, as described above.

| SMILES | IC50 [1] | IC50 [2] |
| --- | --- | --- |
| CCCCC[C@@H](C(=O)NCNC(=O)c1ccc(-c2ccc(C(=O)N[C@@H](CC(=O)O)C(=O)OCOC(=O)c3ccccc3)c(OCC)c2)o1)[C@@H](CC)N(O)C=O [Example 116, (S)-4-((benzoyloxy)methoxy)-3-(2-ethoxy-4-(5-((((R)-2-((R)-1-(N-hydroxyformamido)propyl)heptanamido)methyl)carbamoyl)furan-2-yl)benzamido)-4-oxobutanoic acid] | < 398 nM |  |
| CCCCC[C@@H](C(=O)NCNC(=O)c1ccc(-c2cc(OCC)cc(P(=O)(O)O)c2)o1)[C@@H](CC)N(O)C=O [WO2015/104684 Example 96, (3-ethoxy-5-(5-((((R)-2-((R)-1-(N-hydroxyformamido)propyl)heptanamido)methyl)carbamoyl)furan-2-yl)phenyl)phosphonic acid] |  | < 1000 nM |
| CCCCC[C@@H](C(=O)NCNC(=O)c1ccc(-c2ccc(C(=O)N[C@@H](CC(=O)O)C(=O)OCC)c(OCC)c2)o1)[C@@H](CC)N(O)C=O [Example 113, (S)-4-ethoxy-3-(2-ethoxy-4-(5-((((R)-2-((R)-1-(N-hydroxyformamido)propyl)heptanamido)methyl)carbamoyl)furan-2-yl)benzamido)-4-oxobutanoic acid] | < 398 nM |  |
| CCCCC[C@@H](C(=O)NCNC(=O)c1ccc(-c2ccc(C(=O)N[C@@H](CC(=O)O)C(=O)O)c(OCC)c2)o1)[C@@H](CC)N(O)C=O [WO2015/104684 Example 74, (S)-2-(2-ethoxy-4-(5-((((R)-2-((R)-1-(N-hydroxyformamido)propyl)heptanamido)methyl)carbamoyl)furan-2-yl)benzamido)succinic acid] |  | < 1000 nM |
| CCCCC[C@@H](C(=O)NCNC(=O)c1ccc(-c2ccc(C(=O)NCP(=O)(O)O)c(OCC)c2)o1)[C@@H](CC)N(O)C=O [WO2015/104684 Example 139, ((2-ethoxy-4-(5-((((R)-2-((R)-1-(N-hydroxyformamido)propyl)heptanamido)methyl)carbamoyl)furan-2-yl)benzamido)methyl)phosphonic acid] |  | < 1000 nM |
| CCCCC[C@@H](C(=O)NCNC(=O)c1ccc(-c2ccc(C(=O)N[C@@H](CC(=O)OC)C(=O)OC)c(OCC(=O)OC)c2)o1)[C@@H](CC)N(O)C=O [Example 142, (S)-dimethyl 2-(4-(5-((((R)-2-((R)-1-(N-hydroxyformamido)propyl)heptanamido)methyl)carbamoyl)furan-2-yl)-2-(2-methoxy-2-oxoethoxy)benzamido)succinate] | < 398 nM |  |
| CCCCC[C@@H](C(=O)NCNC(=O)c1ccc(-c2ccc(C(=O)N[C@@H](CC(=O)O)C(=O)OC(C)(C)C)c(OCC)c2)o1)[C@@H](CC)N(O)C=O [Example 114, (S)-4-(tert-butoxy)-3-(2-ethoxy-4-(5-((((R)-2-((R)-1-(N-hydroxyformamido)propyl)heptanamido)methyl)carbamoyl)furan-2-yl)benzamido)-4-oxobutanoic acid] | < 398 nM |  |
| CCCCC[C@@H](C(=O)NCNC(=O)c1ccc(-c2ccc(C(=O)N[C@@H](CC(=O)OC(C)(C)C)C(=O)OC(C)(C)C)c(OCC)c2)o1)[C@@H](CC)N(O)C=O [Example 112, (S)-di-tert-butyl 2-(2-ethoxy-4-(5-((((R)-2-((R)-1-(N-hydroxyformamido)propyl)heptanamido)methyl)carbamoyl)furan-2-yl)benzamido) succinate] | < 398 nM |  |
| CCCCC[C@@H](C(=O)NCNC(=O)c1ccc(-c2ccc(C(=O)OCC)cc2)o1)[C@@H](CC)N(O)C=O [Example 100, ethyl 4-(5-((((R)-2-((R)-1-(N-hydroxyformamido)propyl)heptanamido)methyl)carbamoyl)furan-2-yl)benzoate] | < 398 nM |  |
| CCCCC[C@@H](C(=O)NCNC(=O)c1ccc(-c2cc(OCC)cc(P(=O)(OCOC(C)=O)OCOC(C)=O)c2)o1)[C@@H](CC)N(O)C=O [Example 115, (((3-ethoxy-5-(5-((((R)-2-((R)-1-(N-hydroxyformamido)propyl)heptanamido)methyl)carbamoyl)furan-2-yl)phenyl)phosphoryl)bis(oxy))bis (methylene) diacetate] | < 398 nM |  |
| CCCCC[C@@H](C(=O)NCNC(=O)c1ccc(-c2ccc(C(=O)OCCN(C)C)cc2)o1)[C@@H](CC)N(O)C=O [Example 104, 2-(dimethylamino) ethyl 4-(5-((((R)-2-((R)-1-(N-hydroxyformamido)propyl)heptanamido)methyl)carbamoyl)furan-2-yl)benzoate] | < 398 nM |  |
| CCCCC[C@@H](C(=O)NCNC(=O)c1ccc(-c2cc(OCC)cc(P(=O)(O)OCOC(=O)OC(C)C)c2)o1)[C@@H](CC)N(O)C=O [Example 302, (((3-ethoxy-5-(5-((((R)-2-((R)-1-(N-hydroxyformamido)propyl)heptanamido)methyl)carbamoyl)furan-2-yl)phenyl) (hydroxy)phosphoryl)oxy)methyl isopropyl carbonate] | < 398 nM |  |
| CCCCC[C@@H](C(=O)NCNC(=O)c1ccc(-c2ccc(C(=O)N[C@@H](CC(=O)O)C(=O)O)c(OCC(=O)O)c2)o1)[C@@H](CC)N(O)C=O [WO2015/104684 Example 126, (S)-2-(2-(carboxymethoxy)-4-(5-((((R)-2-((R)-1-(N-hydroxyformamido)propyl)heptanamido)methyl)carbamoyl)furan-2-yl)benzamido)succinic acid] |  | < 1000 nM |
| CCCCC[C@@H](C(=O)NCNC(=O)c1ccc(-c2ccc(C(=O)N[C@@H](CC(=O)OCC)C(=O)OCC)c(OCC)c2)o1)[C@@H](CC)N(O)C=O [Example 143, (S)-diethyl 2-(2-ethoxy-4-(5-((((R)-2-((R)-1-(N-hydroxyformamido)propyl)heptanamido)methyl)carbamoyl)furan-2-yl)benzamido)succinate] | < 398 nM |  |
| CCCCC[C@@H](C(=O)NCNC(=O)c1ccc(-c2ccc(C(=O)OCCCC)cc2)o1)[C@@H](CC)N(O)C=O [Example 101, butyl 4-(5-((((R)-2-((R)-1-(N-hydroxyformamido)propyl)heptanamido)methyl)carbamoyl)furan-2-yl)benzoate] | < 398 nM |  |
| CCCCC[C@@H](C(=O)NCNC(=O)c1ccc(-c2cc(OCC)cc(P(=O)(O)Oc3ccccc3)c2)o1)[C@@H](CC)N(O)C=O [Example 400, Phenyl Hydrogen (3-ethoxy-5-(5-((((R)-2-((R)-1-(N-hydroxyformamido)propyl)heptanamido)methyl)carbamoyl)furan-2-yl)phenyl)phosphonate, Ammonia Salt] | < 398 nM |  |
